Reference: patent US20190284293A1, “COMBINATION THERAPY WITH ANTI-CD73 ANTIBODIES” (BRISTOL-MYERS SQUIBB COMPANY, priority 2016, published 2019)

What was measured:
[1] = target: T1, endogenous CD73 activity in Calu-6 cells (Homo sapiens, UniProt P21589); test: Dual cell line HTRF cAMP assay (Calu-6 and HEK293/A2AR cells); format: cell-based
T1 construct: Calu6 (CD73 endogenous expressors; human pulmonary adenocarcinoma cell line); endogenous in cells; host or cells: Calu6 (Calu-6) human pulmonary adenocarcinoma cells
T1 sequence (P21589 27-549): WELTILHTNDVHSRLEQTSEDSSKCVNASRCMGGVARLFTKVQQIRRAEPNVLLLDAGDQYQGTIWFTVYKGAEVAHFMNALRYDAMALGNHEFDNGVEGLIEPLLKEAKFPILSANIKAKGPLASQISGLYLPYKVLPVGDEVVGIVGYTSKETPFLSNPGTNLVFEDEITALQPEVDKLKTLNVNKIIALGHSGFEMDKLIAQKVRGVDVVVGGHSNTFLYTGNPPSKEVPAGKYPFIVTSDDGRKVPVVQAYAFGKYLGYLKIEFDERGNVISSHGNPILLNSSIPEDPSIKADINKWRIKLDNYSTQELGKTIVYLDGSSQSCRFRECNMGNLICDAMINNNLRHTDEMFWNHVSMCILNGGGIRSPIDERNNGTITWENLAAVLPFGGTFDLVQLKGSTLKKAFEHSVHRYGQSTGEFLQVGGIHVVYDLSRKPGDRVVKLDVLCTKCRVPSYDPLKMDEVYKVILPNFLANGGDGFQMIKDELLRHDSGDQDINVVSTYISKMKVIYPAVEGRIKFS
Method: CD73 antibodies were serial diluted with PBS buffer containing 0.2% BSA, and plated 5 μl/well in 384 well white bottom proxiplate (PerkinElmer, Waltham, Mass.). Calu-6 cells were harvested and resuspend in PBS containing 0.2% BSA, then 5 μl of cells (300 cells/well) were added to the plate. The cells were incubated with antibodies for 10 minutes at 37° C. […] The cells were further incubated with AMP for 30 minutes at 37° C. During this time, HEK293/A2AR cells were harvested and diluted to 0.4 million/ml in PBS containing 0.2% BSA. They were added into the assay plate at 5 μl/well and continued to incubate at 37° C. for 1 hr. HRTF assays were performed using the homogenous time-resolved fluorescence (HTRE) HiRange cAMP detection kit (Cisbio, Bedford, Mass.) by adding 10 cAMP-conjugated d2 and 10 europium conjugated anti-cAMP antibody in lysis buffer according to the manufacturer's instructions. Plates were incubated at room temperature for 60 minutes and Fluorescence Resonance Energy Transfer (FRET) signals (665 and 615 nM) were read using an EnVision plate reader (PerkinElmer, Waltham, Mass.). The FRET signal was calculated as the ratio of signal from the 665 nm (acceptor) and 615 nm (donor) channels and multiplied by 10,000. IC50 and Ymax were measured. […] All calculations were determined as a percentage of inhibition compared to this control, which was set to 100%.

[2] = target: cyno FcγRs; test: SPR binding of constructs to cyno FcγRs; conditions: read-out: binding affinity to cyno FcγRs
[3] = target: all other FcγRs; test: SPR binding of constructs to human FcγRs; conditions: read-out: binding affinity to all other FcγRs
Method: Binding of the constructs to human FcγRs was measured via SPR. hCD64 and hCD32a-H131 binding data for IgG1.1 and IgG2 molecules were consistent with expected values for the different Fcs. IgG1.1f is the most inert Fc.

[4] = target: human FcRn (Homo sapiens, UniProt P55899); test: SPR binding to human FcRn; conditions: strong at pH6, weak binding with fast dissociation at pH 7.4
Chain of human FcRn (P55899 24-297 limits assumed): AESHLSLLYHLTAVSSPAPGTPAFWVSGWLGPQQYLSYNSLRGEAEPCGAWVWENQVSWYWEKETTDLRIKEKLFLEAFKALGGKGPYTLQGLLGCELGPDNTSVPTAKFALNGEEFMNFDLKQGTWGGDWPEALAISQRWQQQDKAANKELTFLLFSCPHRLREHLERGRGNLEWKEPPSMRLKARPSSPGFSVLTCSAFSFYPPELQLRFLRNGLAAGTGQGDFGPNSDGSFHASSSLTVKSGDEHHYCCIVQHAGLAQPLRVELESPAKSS
Chain of human FcRn (P61769 21-119 partner): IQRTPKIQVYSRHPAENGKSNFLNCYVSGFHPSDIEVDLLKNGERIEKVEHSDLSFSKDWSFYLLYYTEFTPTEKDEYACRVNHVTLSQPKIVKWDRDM

Row | Compound | IC50 ([1]; cAMP assay) | Ymax ([1]; percentage of inhibition compared to 100 nM 11F11 set to 100%) | Kd [2] | Kd [3] | binding to human FcRn [4]
1 | Nc1ncnc2c1ncn2[C@@H]1O[C@H](COP(=O)(O)CP(=O)(O)O)[C@@H](O)[C@H]1O [APCP] | 0.00129 µM | 97 | – | – | –
2 | IgG2-C219S-G1.1f: effectorless IgG1/IgG2 hybrid constant region: CH1 and hinge from IgG2 (C219S), CH2 and CH3 of IgG1 (A330S/P331S); SEQ ID NO:169 | – | – | > 5 µM | < 5 µM | pH-dependent binding
